{"source": "patent US12077503B2", "about": "“Substituted cyclic amides and their use as herbicides” (FMC CORPORATION, priority 2015, dated 2024)", "type_in_all_cases": "in vivo", "key": {"[1]": {"system": "redroot pigweed (Amaranthus retroflexus)", "assay": "Test G Pre-Emergence Protocol", "conditions": "Amaranthus retroflexus, pre-emergence, 312 h, evaluated after 13 days", "procedure,_shortened": "(§1)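 Glasshouse pre-emergence test: soil-sown seeds, sprayed after 1 d at 15.625, 62.5 or 250 g/ha. Conditions 24/16° C day/night, 14 h light, 65% humidity, watering twice daily. Rating 13 d post-spray (100 = total damage).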"}, "[2]": {"system": "corn (Zea mays)", "assay": "Test G Pre-Emergence Protocol", "conditions": "Zea mays, pre-emergence, 312 h, evaluated after 13 days", "procedure,_shortened": "as §1"}, "[3]": {"system": "giant foxtail (Setaria faberi)", "assay": "Test G Pre-Emergence Protocol", "conditions": "Setaria faberi, pre-emergence, 312 h, evaluated after 13 days", "procedure,_shortened": "as §1"}, "[4]": {"system": "barnyardgrass (Echinochloa crus-galli)", "assay": "Test G Pre-Emergence Protocol", "conditions": "Echinochloa crus-galli, pre-emergence, 312 h, evaluated after 13 days", "procedure,_shortened": "as §1"}, "[5]": {"system": "ivy-leaved morning glory (Ipomoea hederacea)", "assay": "Test G Pre-Emergence Protocol", "conditions": "Ipomoea, pre-emergence, 312 h, evaluated after 13 days", "procedure,_shortened": "as §1"}, "[6]": {"system": "velvetleaf (Abutilon theophrasti)", "assay": "Test G Pre-Emergence Protocol", "conditions": "Abutilon theophrasti, pre-emergence, 312 h, evaluated after 13 days", "procedure,_shortened": "as §1"}, "[7]": {"system": "redroot pigweed (Amaranthus retroflexus)", "assay": "Test G Post-Emergence Protocol", "conditions": "Amaranthus retroflexus, post-emergence, 312 h, read-out: Pigweed, Redroot damage rating", "procedure,_shortened": "(§2)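 Pot-grown seedlings, 8 days old, raised in a glasshouse at 24/16 °C day/night with 14 h light and 65% humidity, were sprayed post-emergence with test compound in acetone/water (50:50) plus 0.5% Tween 20 at 15.625, 62.5 or 250 g/ha. Damage was scored visually 13 days later on a 0–100 scale (100 = total damage).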"}, "[8]": {"system": "corn (Zea mays)", "assay": "Test G Post-Emergence Protocol", "conditions": "Zea mays, post-emergence, 312 h, read-out: Corn damage rating", "procedure,_shortened": "as §2"}, "[9]": {"system": "giant foxtail (Setaria faberi)", "assay": "Test G Post-Emergence Protocol", "conditions": "Setaria faberi, post-emergence, 312 h, read-out: Foxtail, Giant damage rating", "procedure,_shortened": "as §2"}, "[10]": {"system": "barnyardgrass (Echinochloa crus-galli)", "assay": "Test G Post-Emergence Protocol", "conditions": "Echinochloa crus-galli, post-emergence, 312 h, read-out: Barnyardgrass damage rating", "procedure,_shortened": "as §2"}, "[11]": {"system": "ivy-leaved morning glory (Ipomoea hederacea)", "assay": "Test G Post-Emergence Protocol", "conditions": "Ipomoea, post-emergence, 312 h, read-out: Morningglory, Ivy-leaved damage rating", "procedure,_shortened": "as §2"}, "[12]": {"system": "velvetleaf (Abutilon theophrasti)", "assay": "Test G Post-Emergence Protocol", "conditions": "Abutilon theophrasti, post-emergence, 312 h, read-out: Velvetleaf damage rating", "procedure,_shortened": "as §2"}, "[13]": {"conditions": "15.625 g ai/ha, evaluated after 13 days (100=total damage to plant; 0=no damage to plant)"}, "[14]": {"conditions": "62.5 g ai/ha, evaluated after 13 days, 100=total damage to plant, 0=no damage to plant"}, "[15]": {"conditions": "250 g ai/ha, evaluated after 13 days, 100=total damage to plant, 0=no damage to plant"}}, "data": [{"smiles": "CN1CC(c2ccc(C(F)(F)F)c(C(F)(F)F)c2)C(C(=O)Nc2cccc(F)c2F)C1=O", "note": "(stereo not drawn) [Compound 1714]", "values": [{"measurement": "pest or weed control at 15.625 g/ha", "setting": "[1]; 15.625 g ai/ha, read-out: Pigweed, Redroot damage rating (100=total damage to plant; 0=no damage to plant)", "value": 0, "unit": "%"}, {"measurement": "pest or weed control at 62.5 g/ha", "setting": "[1]; 62.5 g ai/ha, 100=total damage to plant, 0=no damage to plant, read-out: Pigweed, Redroot damage rating", "value": 0, "unit": "%"}, {"measurement": "pest or weed control at 250 g/ha", "setting": "[1]; 250 g ai/ha, read-out: Pigweed, Redroot damage rating (100=total damage to plant; 0=no damage to plant)", "value": 10, "unit": "%"}, {"measurement": "plant injury at 15.625 g/ha", "setting": "[2]; 15.625 g ai/ha, read-out: Corn damage rating (100=total damage to plant; 0=no damage to plant)", "value": 0, "unit": "%"}, {"measurement": "plant injury at 62.5 g/ha", "setting": "[2]; 62.5 g ai/ha, 100=total damage to plant, 0=no damage to plant, read-out: Corn damage rating", "value": 0, "unit": "%"}, {"measurement": "plant injury at 250 g/ha", "setting": "[2]; 250 g ai/ha, read-out: Corn damage rating (100=total damage to plant; 0=no damage to plant)", "value": 10, "unit": "%"}, {"measurement": "pest or weed control at 15.625 g/ha", "setting": "[3]; 15.625 g ai/ha, read-out: Foxtail, Giant damage rating (100=total damage to plant; 0=no damage to plant)", "value": 30, "unit": "%"}, {"measurement": "pest or weed control at 62.5 g/ha", "setting": "[3]; 62.5 g ai/ha, 100=total damage to plant, 0=no damage to plant, read-out: Foxtail, Giant damage rating", "value": 70, "unit": "%"}, {"measurement": "pest or weed control at 250 g/ha", "setting": "[3]; 250 g ai/ha, read-out: Foxtail, Giant damage rating (100=total damage to plant; 0=no damage to plant)", "value": 80, "unit": "%"}, {"measurement": "pest or weed control at 15.625 g/ha", "setting": "[4]; 15.625 g ai/ha, read-out: Barnyardgrass damage rating (100=total damage to plant; 0=no damage to plant)", "value": 0, "unit": "%"}, {"measurement": "pest or weed control at 62.5 g/ha", "setting": "[4]; 62.5 g ai/ha, 100=total damage to plant, 0=no damage to plant, read-out: Barnyardgrass damage rating", "value": 50, "unit": "%"}, {"measurement": "pest or weed control at 250 g/ha", "setting": "[4]; 250 g ai/ha, read-out: Barnyardgrass damage rating (100=total damage to plant; 0=no damage to plant)", "value": 80, "unit": "%"}, {"measurement": "pest or weed control at 15.625 g/ha", "setting": "[5]; 15.625 g ai/ha, read-out: Morningglory, Ivy-leaved damage rating (100=total damage to plant; 0=no damage to plant)", "value": 0, "unit": "%"}, {"measurement": "pest or weed control at 62.5 g/ha", "setting": "[5]; 62.5 g ai/ha, 100=total damage to plant, 0=no damage to plant, read-out: Morningglory, Ivy-leaved damage rating", "value": 0, "unit": "%"}, {"measurement": "pest or weed control at 250 g/ha", "setting": "[5]; 250 g ai/ha, read-out: Morningglory, Ivy-leaved damage rating (100=total damage to plant; 0=no damage to plant)", "value": 10, "unit": "%"}, {"measurement": "pest or weed control at 15.625 g/ha", "setting": "[6]; 15.625 g ai/ha, read-out: Velvetleaf damage rating (100=total damage to plant; 0=no damage to plant)", "value": 0, "unit": "%"}, {"measurement": "pest or weed control at 62.5 g/ha", "setting": "[6]; 62.5 g ai/ha, 100=total damage to plant, 0=no damage to plant, read-out: Velvetleaf damage rating", "value": 0, "unit": "%"}, {"measurement": "pest or weed control at 250 g/ha", "setting": "[6]; 250 g ai/ha, read-out: Velvetleaf damage rating (100=total damage to plant; 0=no damage to plant)", "value": 0, "unit": "%"}, {"measurement": "pest or weed control at 15.625 g/ha", "setting": "[7]; [13]", "value": 70, "unit": "%"}, {"measurement": "pest or weed control at 62.5 g/ha", "setting": "[7]; [14]", "value": 80, "unit": "%"}, {"measurement": "pest or weed control at 250 g/ha", "setting": "[7]; [15]", "value": 90, "unit": "%"}, {"measurement": "plant injury at 15.625 g/ha", "setting": "[8]; [13]", "value": 20, "unit": "%"}, {"measurement": "plant injury at 62.5 g/ha", "setting": "[8]; [14]", "value": 30, "unit": "%"}, {"measurement": "plant injury at 250 g/ha", "setting": "[8]; [15]", "value": 50, "unit": "%"}, {"measurement": "pest or weed control at 15.625 g/ha", "setting": "[9]; [13]", "value": 70, "unit": "%"}, {"measurement": "pest or weed control at 62.5 g/ha", "setting": "[9]; [14]", "value": 80, "unit": "%"}, {"measurement": "pest or weed control at 250 g/ha", "setting": "[9]; [15]", "value": 80, "unit": "%"}, {"measurement": "pest or weed control at 15.625 g/ha", "setting": "[10]; [13]", "value": 40, "unit": "%"}, {"measurement": "pest or weed control at 62.5 g/ha", "setting": "[10]; [14]", "value": 70, "unit": "%"}, {"measurement": "pest or weed control at 250 g/ha", "setting": "[10]; [15]", "value": 80, "unit": "%"}, {"measurement": "pest or weed control at 15.625 g/ha", "setting": "[11]; [13]", "value": 10, "unit": "%"}, {"measurement": "pest or weed control at 62.5 g/ha", "setting": "[11]; [14]", "value": 20, "unit": "%"}, {"measurement": "pest or weed control at 250 g/ha", "setting": "[11]; [15]", "value": 60, "unit": "%"}, {"measurement": "pest or weed control at 15.625 g/ha", "setting": "[12]; [13]", "value": 0, "unit": "%"}, {"measurement": "pest or weed control at 62.5 g/ha", "setting": "[12]; [14]", "value": 30, "unit": "%"}, {"measurement": "pest or weed control at 250 g/ha", "setting": "[12]; [15]", "value": 40, "unit": "%"}]}]}
